# Experiments:
# [1] = molecular target: BTK (C481S) (Homo sapiens (Human), UniProt Q06187, C481S); experiment: BTK C481S enzyme experiment (ADP-Glo kinase assay); format: biochemical; conditions: 10 nM BTK C481S, ATP 125 μM, Poly(Glu4, Tyr1), 90 minutes at 20° C.
# Protocol: (§1) A 3-fold gradient concentration stock solution of 1000× compound was prepared using DMSO and diluted 100-fold to 10× compound stock solution using reaction buffer (50 mM HEPES, pH 7.5, 0.0015% Briji-35, 2 mM DTT, 10 mM MgCl2), and the 10× compound stock solution was transferred to a 384-well plate. Enzyme reactions were set up with BTK Kinase Enzyme System (Promega Catalog #V2941) or BTK (C481S) Kinase Enzyme System (Promega Catalog #VA7033). First, a 2× enzyme solution containing 10 nM BTK or 10 nM BTK C481S was prepared with reaction buffer and added to the plate, and incubated with the compound for 10 minutes. […] Finally, the kinase activity was detected according to the experimental steps provided by ADP-Glo™ kinase Assay Kit (Promega, #V9101), and finally the luminescence chemiluminescence value was read. DMSO was used as the maximum signal value, and adding no enzyme was used as the minimum signal value. The inhibition rate of the compound (%)=(maximum signal value−compound signal value)/(maximum signal value−minimum signal value)×100% was calculated. The compound gradient dilution concentration and the corresponding inhibition rate of the enzyme activity were fit by using XLFit four-parameter method, and IC50 value was calculated.
# [2] = molecular target: BTK (Homo sapiens (Human), UniProt Q06187); experiment: BTK enzyme experiment (ADP-Glo kinase assay); format: biochemical; conditions: 10 nM BTK, ATP 125 μM, Poly(Glu4, Tyr1), 90 minutes at 20° C.; read-out: BTK(WT) IC50
# Protocol: as §1
# Sequence of BTK (C481S) (Q06187 whole entry C481S): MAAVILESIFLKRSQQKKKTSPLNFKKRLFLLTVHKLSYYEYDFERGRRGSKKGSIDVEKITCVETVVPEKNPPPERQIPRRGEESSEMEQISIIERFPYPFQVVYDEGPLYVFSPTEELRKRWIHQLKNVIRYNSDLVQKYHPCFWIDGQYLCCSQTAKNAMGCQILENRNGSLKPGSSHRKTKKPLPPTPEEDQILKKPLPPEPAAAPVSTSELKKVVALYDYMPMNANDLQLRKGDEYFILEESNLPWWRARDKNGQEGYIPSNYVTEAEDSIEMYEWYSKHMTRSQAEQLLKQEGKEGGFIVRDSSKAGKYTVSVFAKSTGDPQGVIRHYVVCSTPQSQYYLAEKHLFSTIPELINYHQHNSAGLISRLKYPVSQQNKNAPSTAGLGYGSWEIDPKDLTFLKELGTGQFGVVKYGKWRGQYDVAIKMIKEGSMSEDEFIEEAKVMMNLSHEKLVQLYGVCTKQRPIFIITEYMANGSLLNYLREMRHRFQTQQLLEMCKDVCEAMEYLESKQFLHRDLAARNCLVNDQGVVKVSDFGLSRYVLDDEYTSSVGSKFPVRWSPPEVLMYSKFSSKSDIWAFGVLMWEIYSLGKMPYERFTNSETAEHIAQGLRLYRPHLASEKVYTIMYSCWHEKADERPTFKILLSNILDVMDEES
# Sequence of BTK (Q06187 whole entry): as the sequence (Q06187 whole entry C481S) above, with S481C counted along it
IC50 [1] [nM],IC50 [2] [nM],SMILES
28.5,35.9,"N#C[C@H]1CC[C@@]2(C1)Nc1c(cnc3[nH]cc(C(=O)c4ccc(Oc5ccccc5)cc4Cl)c13)NC2=O (single isomer, unassigned) [Z26-4]"
92.3,136,"COCC1(C)Nc2c(cnc3[nH]cc(C(=O)c4ccc(Oc5ccccc5)cc4Cl)c23)N(C)C1=O (single isomer, unassigned) [Z52-2, 9-(2-chloro-4-phenoxybenzoyl)-2-(methoxymethyl)-2,4-dimethyl-1,2,4,7-tetrahydro-3H-pyrrolo[3′,2′:5,6]pyrido[3,4-b]pyrazin-3-one]"
17.2,8.4,"COCC1(C)Nc2c(cnc3[nH]cc(C(=O)c4ccc(Oc5cc(C)ccn5)cc4Cl)c23)NC1=O (single isomer, unassigned) [Z64-2, 9-(2-chloro-4-((4-methylpyridin-2-yl)oxy)benzoyl)-2-(methoxymethyl)-2-methyl-1,2,4,7-tetrahydro-3H-pyrrolo[3′,2′:5,6]pyrido[3,4-b]pyrazin-3-one]"
17.8,20.4,"CCOC[C@@]1(C)Nc2c(cnc3[nH]cc(C(=O)c4ccc(Oc5ccccc5)cc4Cl)c23)NC1=O (single isomer, unassigned) [Z67-2]"
21.2,13.9,"COCC1(C)Nc2c(cnc3[nH]cc(C(=O)c4ccc(Oc5cc(C)ccn5)cc4F)c23)NC1=O (single isomer, unassigned) [Z69-1, 9-(2-fluoro-4-((4-methylpyridin-2-yl)oxy)benzoyl)-2-(methoxymethyl)-2-methyl-1,2,4,7-tetrahydro-3H-pyrrolo[3′,2′:5,6]pyrido[3,4-b]pyrazin-3-one]"
28.3,17.5,"COCC1(C)Nc2c(cnc3[nH]cc(C(=O)c4ccc(Oc5cc(C)ccn5)cc4F)c23)NC1=O (single isomer, unassigned) [Z69-2, 9-(2-fluoro-4-((4-methylpyridin-2-yl)oxy)benzoyl)-2-(methoxymethyl)-2-methyl-1,2,4,7-tetrahydro-3H-pyrrolo[3′,2′:5,6]pyrido[3,4-b]pyrazin-3-one]"
19.2,23.5,"COC[C@]1(C)Nc2c(cnc3[nH]cc(C(=O)c4ccc(Oc5ccccc5)cc4F)c23)NC1=O (single isomer, unassigned) [Z71-2]"
29.5,15.3,"COCC1(C)Nc2c(cnc3[nH]cc(C(=O)c4ccc(Oc5cc(C6CC6)ccn5)cc4Cl)c23)NC1=O (single isomer, unassigned) [Z73-1, 9-(2-chloro-4-((4-cyclopropylpyridin-2-yl)oxy)benzoyl)-2-(methoxymethyl)-2-methyl-4,7-dihydro-1H-pyrrolo[3′,2′:5,6]pyrido[3,4-b]pyrazin-3(2H)-one]"
60.8,34.3,"COCC1(C)Nc2c(cnc3[nH]cc(C(=O)c4ccc(Oc5cc(C6CC6)ccn5)cc4Cl)c23)NC1=O (single isomer, unassigned) [Z73-2, 9-(2-chloro-4-((4-cyclopropylpyridin-2-yl)oxy)benzoyl)-2-(methoxymethyl)-2-methyl-4,7-dihydro-1H-pyrrolo[3′,2′:5,6]pyrido[3,4-b]pyrazin-3(2H)-one]"
51.1,114,"COCCOCC1(C)Nc2c(cnc3[nH]cc(C(=O)c4ccc(Oc5ccccc5)cc4Cl)c23)NC1=O (single isomer, unassigned) [Z153-2, 9-(2-chloro-4-phenoxybenzoyl)-2-((2-methoxyethoxy)methyl)-2-methyl-1,2,4,7-tetrahydro-3H-pyrrolo[3′,2′:5,6]pyrido[3,4-b]pyrazin-3-one]"
273,345,"CN1CCC2(CC1)Nc1c(cnc3[nH]cc(C(=O)c4ccc(Oc5ccccc5)cc4Cl)c13)NC2=O [Z17, 9′-(2-chloro-4-phenoxybenzoyl)-1-methyl-4′,7′-dihydrospiro[piperidine-4,2′-pyrrolo[3′,2′:5,6]pyrido[3,4-b]pyrazin]-3′(1′H)-one]"
87.7,145,O=C(c1ccc(Oc2ccccc2)cc1Cl)c1c[nH]c2ncc3c(c12)NC1(CCOC1)CO3 (centres unmarked) [Z18]
12.6,23.1,"CN1CCCC2(C1)Nc1c(cnc3[nH]cc(C(=O)c4ccc(Oc5ccccc5)cc4Cl)c13)NC2=O (centres unmarked) [Z19, 9′-(2-chloro-4-phenoxybenzoyl)-1-methyl-4′,7′-dihydrospiro[piperidine-3,2′-pyrrolo[3′,2′:5,6]pyrido[3,4-b]pyrazin]-3′(1′H)-one]"
7.2,27.1,"CN1C(=O)C2(CCOCC2)Nc2c1cnc1[nH]cc(C(=O)c3ccc(Oc4ccccc4)cc3Cl)c21 [Z22, 9′-(2-chloro-4-phenoxybenzoyl)-4′-methyl-2,3,4′,5,6,7′-hexahydrospiro[pyran-4,2′-pyrrolo[3′,2′:5,6]pyrido[3,4-b]pyrazin]-3′(1′H)-one]"
120,142,"CC1(CO)Nc2c(cnc3[nH]cc(C(=O)c4ccc(Oc5ncccc5C(F)(F)F)cc4Cl)c23)NC1=O (centres unmarked) [Z55, 9-(2-chloro-4-((3-(trifluoromethyl)pyridin-2-yl)oxy)benzoyl)-2-(hydroxymethyl)-2-methyl-4,7-dihydro-1H-pyrrolo[3′,2′:5,6]pyrido[3,4-b]pyrazin-3(2H)-one]"
18.4,22.9,"Cc1ccnc(Oc2ccc(C(=O)c3c[nH]c4ncc5c(c34)NC(C)(CO)C(=O)N5)c(Cl)c2)c1 (centres unmarked) [Z56, 9-(2-chloro-4-((4-methylpyridin-2-yl)oxy)benzoyl)-2-(hydroxymethyl)-2-methyl-1,2,4,7-tetrahydro-3H-pyrrolo[3′,2′:5,6]pyrido[3,4-b]pyrazin-3-one]"
129,185,CN(C)CCN1C(=O)C(C)(C)Nc2c1cnc1[nH]cc(C(=O)c3ccc(Oc4ccccc4)cc3Cl)c21 [Z63]
28,34.8,"COCC1(C)Nc2c(cnc3[nH]cc(C(=O)c4ccc(Oc5cc(C)ccn5)cc4F)c23)NC1=O (centres unmarked) [Z69, 9-(2-fluoro-4-((4-methylpyridin-2-yl)oxy)benzoyl)-2-(methoxymethyl)-2-methyl-1,2,4,7-tetrahydro-3H-pyrrolo[3′,2′:5,6]pyrido[3,4-b]pyrazin-3-one]"
3.2,5.8,"COC[C@]1(C)Nc2c(cnc3[nH]cc(C(=O)c4ccccc4Cl)c23)NC1=O [Z79, (S)-9-(2-chlorobenzoyl)-2-(methoxymethyl)-2-methyl-1,2,4,7-tetrahydro-3H-pyrrolo[3′,2′:5,6]pyrido[3,4-b]pyrazin-3-one]"
18.5,15.2,"COC[C@]1(C)Nc2c(cnc3[nH]cc(C(=O)c4cc(F)ccc4Cl)c23)NC1=O [Z85, (S)-9-(2-chloro-5-fluorobenzoyl)-2-(methoxymethyl)-2-methyl-1,2,4,7-tetrahydro-3H-pyrrolo[3′,2′:5,6]pyrido[3,4-b]pyrazin-3-one]"
9.7,16,"COC[C@]1(C)Nc2c(cnc3[nH]cc(C(=O)c4ccccc4Br)c23)NC1=O [Z86, (S)-9-(2-bromobenzoyl)-2-(methoxymethyl)-2-methyl-1,2,4,7-tetrahydro-3H-pyrrolo[3′,2′:5,6]pyrido[3,4-b]pyrazin-3-one]"
7.5,23.4,"COC[C@]1(C)Nc2c(cnc3[nH]cc(C(=O)c4ccccc4)c23)NC1=O [Z89, (S)-9-benzoyl-2-(methoxymethyl)-2-methyl-1,2,4,7-tetrahydro-3H-pyrrolo[3′,2′:5,6]pyrido[3,4-b]pyrazin-3-one]"
9.8,20.1,"COC[C@]1(C)Nc2c(cnc3[nH]cc(C(=O)c4sccc4Cl)c23)NC1=O [Z103, (S)-9-(3-chlorothiophene-2-carbonyl)-2-(methoxymethyl)-2-methyl-1,2,4,7-tetrahydro-3H-pyrrolo[3′,2′:5,6]pyrido[3,4-b]pyrazin-3-one]"
61.1,61.8,"COC[C@]1(C)Nc2c(cnc3[nH]cc(C(=O)c4ccc(OC)cc4Cl)c23)NC1=O [Z113, (S)-9-(2-chloro-4-methoxybenzoyl)-2-(methoxymethyl)-2-methyl-1,2,4,7-tetrahydro-3H-pyrrolo[3′,2′:5,6]pyrido[3,4-b]pyrazin-3-one]"
70.5,64.1,"COC[C@]1(C)Nc2c(cnc3[nH]cc(C(=O)c4ccc(OC5CCCC5)cc4Cl)c23)NC1=O [Z122, (S)-9-(2-chloro-4-(cyclopentyloxy)benzoyl)-2-(methoxymethyl)-2-methyl-1,2,4,7-tetrahydro-3H-pyrrolo[3′,2′:5,6]pyrido[3,4-b]pyrazin-3-one]"
29.1,28.2,"COC[C@]1(C)Nc2c(cnc3[nH]cc(C(=O)c4ccc(Oc5ccccc5)cc4)c23)NC1=O [Z125-1, (S)-2-(methoxymethyl)-2-methyl-9-(4-phenoxybenzoyl)-1,2,4,7-tetrahydro-3H-pyrrolo[3′,2′:5,6]pyrido[3,4-b]pyrazin-3-one]"
31.5,29.1,"COC[C@]1(C)Nc2c(cnc3[nH]cc(C(=O)c4ccc(Oc5cc(C)cc(C)n5)cc4Cl)c23)NC1=O [Z127-1, (S)-9-(2-chloro-4-((4,6-dimethylpyridin-2-yl)oxy)benzoyl)-2-(methoxymethyl)-2-methyl-1,2,4,7-tetrahydro-3H-pyrrolo[3′,2′:5,6]pyrido[3,4-b]pyrazin-3-one]"
38.4,28.8,COC[C@]1(C)Nc2c(cnc3[nH]cc(C(=O)c4ncc(Oc5ccccc5)cc4Cl)c23)NC1=O [Z133]

# Source: patent US20240360154A1, “AROYL SUBSTITUTED TRICYCLIC COMPOUND, PREPARATION METHOD THEREFOR AND USE THEREOF” (GENFLEET THERAPEUTICS (SHANGHAI) INC., priority 2020, published 2024)
